Consider seven molecules from patent US20260028338A1, “HETEROBIFUNCTIONAL COMPOUNDS AND METHODS OF TREATING DISEASE” (Halda Therapeutics OpCo, Inc., priority 2023, published 2026).

As a reminder, the GI50 is the concentration that inhibits growth by half. A high value points to less potent growth inhibition. What is called Kd is the concentration at which binding is half-saturated. A low value points to tighter binding. One may read the IC50 as the concentration that inhibits the measured activity by half. Higher therefore signals a need for much substance.

In one assay the test system is Su-DHL-4 cell line. Put plainly: Cellular growth inhibition assay, Su-DHL-4 cells (CellTiter-Glo). It counts as cell-based. The note with it: Homo sapiens; Su-DHL-4 cell line (DLBCL), 72 hours, CellTiter-Glo 2.0. The method, then:
(§1) Exemplary compounds were tested for ability to inhibit the proliferation of Su-DHL-4 and Farage cells. Su-DHL-4 and Farage cells are commercially available diffuse large B cell lymphoma cell lines (DLBCL).
(§2) Su-DHL-4 and Farage cells were purchased from American Type Cell Culture (ATCC Cat #CRL-2957/CRL-2630) and then seeded on poly-D-lysine coated, black clear-bottom 384-well plates at 3000/well in 25 μL Roswell Park Memorial Institute media (RPMI-1640) supplemented with 10% w/w Fetal bovine serum (FBS) and 1% w/w Pen-Strep. Pen-Strep is a commercially available mixture of penicillin G and streptomycin, which is used in mammalian cell culture media to prevent bacterial contamination. Roswell Park Memorial Institute media (RPMI-1640) supplemented with 10% w/w fetal bovine serum (FBS), and 1% w/w Pen-Strep is herein referred to as Treatment Medium. Following seeding of cells in the plates, the plates were spun at 300×g for 30 seconds, then equilibrated to room temperature for 30 minutes, and then deposited in a humidified tissue culture incubator maintained at 37° C. with 5% CO2.
(§3) At 24 hours after seeding of the cells, dilutions of test compound were prepared in DMSO and dissolved in Treatment Medium, to achieve a final DMSO concentration of 0.5% w/w, thereby providing the Test Compound Solution. A 25 μL aliquot of the Test Compound Solution was added to cells in the well plates. An equal volume of a solution containing DMSO and Treatment Medium was used as a negative control. Following treatment of cells with Test Compound Solution or said equal volume of a solution containing DMSO and Treatment Medium, the plates were spun at 300×g for 30 seconds, and then left in an incubator for 72 hours.
(§4) At the end of the treatment duration, cell viability was quantified with CellTiter-Glo 2.0 reagent (Promega Cat #G9243). For this purpose, plates were equilibrated to room temperature for 30 minutes, and then 25 μL of CellTiter-Glo 2.0 reagent was added to cells in the plate wells. Plates were then agitated on a shaker for two minutes at 500 rpm and subsequently incubated at room temperature for 10 minutes. Following incubation, the plates were spun at 3000×g for 30 seconds, then sealed with an optical adhesive cover, and luminescence readings were measured with an EnVision Plate Reader (Perkin Elmer).
(§5) Data was normalized using zero luminescence for baseline. A four-parameter non-linear regression curve fit was applied to dose-response data in GraphPad Prism data analysis software to determine the half-maximal growth inhibitory concentration (GI50) for each test compound.
For orientation: In ATP-based viability assays light output follows the ATP content of the culture.

Assay [1] has as its target T1, biotinylated BCL6 (5-129) (Homo sapiens, UniProt P41182).
T1 construct: biotinylated BCL6 (5-129) was diluted in 10 mM HEPES pH 7.4; biotin (biotinylated)
Put plainly: SPR assay for binding affinity to BCL6. The note with it: Biacore 8K, 25° C., immobilized biotinylated BCL6 (5-129). How it is done:
Exemplary compounds were tested for ability to bind to B-cell lymphoma 6 (BCL6) protein.
Binding studies by surface plasmon resonance (SPR) were performed using a Biacore 8K (Cytiva) instrument at 25° C. Briefly, biotinylated BCL6 (5-129) was diluted in 10 mM HEPES pH 7.4, 150 mM NaCl, 0.05% Surfactant P20, 0.5 mM TCEP, 3% DMSO to 1-5 μg/mL and was immobilized on an SA sensor chip (Cytiva, BR100032), resulting in surface densities at 1000-3000 resonance units (RUs). Test compounds were serially diluted five times in the same buffer and were injected to the immobilized surface. Kinetic determination experiments were performed using single-cycle kinetics with 110-120 s contact time, 1000-4000 s dissociation time, 30 μL/min flow rate. Binding data were analyzed by using Biacore insight evaluation software to determine KD values for test compounds.
On the technique in general: Surface plasmon resonance follows binding to a sensor surface in real time, without labels.

Assay [2] deals with T2, His-tagged BRD4 BD1 (46-168) (Homo sapiens, UniProt O60885).
T2 construct: His-tagged BRD4 BD1 (46-168) and biotinylated histone H4K5/8/12/16(Ac) peptide
Nature of the assay: AlphaLISA competition assay, BRD4 BD1. It counts as binding. The note with it: BRD4-BD1, AlphaLISA competition with biotinylated histone H4K5/8/12/16(Ac) peptide, 10 nM. The method, then:
(§6) Exemplary compounds were tested for ability to bind to bromodomain-containing protein 4 (BRD4).
(§7) Compounds were tested using a developed AlphaLISA competition assay. Briefly, His-tagged BRD4 BD1 (46-168) and biotinylated histone H4K5/8/12/16(Ac) peptide (ANASPEC, AS-64989-1) were incubated in 20 mM HEPES pH 7.5, 100 mM NaCl, 0.5 mM TCEP, 0.1% BSA, 0.02% CHAPS at a final concentration of 10 nM. Test compounds were serially diluted ten times in the same buffer and were added to the BRD4-peptide mixture for 1 h incubation at room temperature. Following incubation, Streptavidin AlphaLISA acceptor beads (PerkinElmer, AL125M) were added to BRD4-peptide-compound samples to a final concentration of 0.01 mg/mL for a 0.5 h incubation at room temperature in the dark. Following incubation, the same amount of Nickel Chelate Alpha donor beads (PerkinElmer, AS101M) were added to the samples for a final 1 h incubation. The AlphaLISA signals were measured using an EnVision plate reader (PerkinElmer). The data were uploaded to Screening Ultra (Dotmatics) to determine the half-maximal inhibitory concentration (IC50) for each test compound.
(Alpha assays give light when donor and acceptor beads are brought close together.)

The target of assay [3] is T3, His-tagged BRD4 BD2 (333-460) (Homo sapiens, UniProt O60885).
T3 construct: The same assay was developed for His-tagged BRD4 BD2 (333-460) and biotinylated histone H4K5/8/12/16(Ac) peptide
Nature of the assay: AlphaLISA competition assay, BRD4 BD2. It counts as binding. Conditions: BRD4-BD2, AlphaLISA competition with biotinylated histone H4K5/8/12/16(Ac) peptide, 20 nM. How it is done:
as §6, §7
The same assay was developed for His-tagged BRD4 BD2 (333-460) and biotinylated histone H4K5/8/12/16(Ac) peptide at a final concentration of 20 nM.

Assay [4] concerns T-Rex 293 cell line SC cells having increased expression of BCL6 protein. Put plainly: Cellular growth inhibition assay, T-Rex 293 SC cells with doxycycline (CellTiter-Glo). The format is cell-based. The note with it: T-Rex 293 SC cells with 10 ng/mL doxycycline (increased BCL6 expression), 72 hours, CellTiter-Glo 2.0. How it is done:
(§8) Exemplary compounds were tested for ability to inhibit the proliferation of the following types of cells: (i) a T-Rex 293 cell line having increased expression of BCL6 protein due to exposure of doxycycline and (ii) a T-Rex 293 cell line lacking increased expression of BCL6 protein.
(§9) The following types of cells were prepared for this experiment: (i) a T-Rex 293 cell line having increased expression of BCL6 protein due to exposure to doxycycline and (ii) a T-Rex 293 cell line lacking increased expression of BCL6 protein. Ability of the test compounds to inhibit proliferation of the foregoing cell types was evaluated according to the procedures set forth below.
(§10) The doxycycline-inducible BCL6 protein expressing cell line was established using the following protocol: T-Rex 293 cells were purchased from Invitrogen (Cat #R71007) and transfected using Lipofectamine 2000 with the wild-type BCL6 protein sequence cloned into the pcDNA4/TO vector. Transfected cells were selected using 400 μg/mL Zeocin (Invitrogen Cat #R25001). Following selection, single clones were raised and maintained in Dulbecco's Modified Eagle Medium (DMEM) supplemented with 10% w/w Tetracycline-free fetal bovine serum (FBS) and 250 μg/mL Zeocin. Clones were analyzed for expression of BCL6 protein in the presence and absence of 10 ng/mL doxycycline (Sigma Cat #D9891), and a single doxycycline-inducible clone (hereinafter “SC”) was selected for use in downstream assays.
(§11) The SC cells were seeded on poly-D-lysine coated, black clear-bottom 384-well plates at 2500/well, in 25 μL Dulbecco's Modified Eagle Medium (DMEM) supplemented with 10% w/w Tetracycline-free fetal bovine serum (FBS) and 1% w/w pen-strep, with or without 10 ng/mL doxycycline. Pen-Strep is a commercially available mixture of penicillin G and streptomycin, which is used in mammalian cell culture media to prevent bacterial contamination. Dulbecco's Modified Eagle Medium (DMEM) supplemented with 10% w/w Tetracycline-free fetal bovine serum (FBS) and 1% w/w pen-strep, with or without 10 ng/mL doxycycline is herein referred to as Treatment Medium. Following seeding of cells in the plates, the plates were spun at 300×g for 30 seconds, then equilibrated to room temperature for 30 minutes, and then deposited in a humidified tissue culture incubator maintained at 37° C. with 5% CO2.
as §3, §4, §5

Assay [5] concerns T-Rex 293 cell line SC cells lacking increased expression of BCL6 protein. Nature of the assay: Cellular growth inhibition assay, T-Rex 293 SC cells without doxycycline (CellTiter-Glo). It counts as cell-based. Conditions: T-Rex 293 SC cells not exposed to doxycycline (no increased BCL6 expression), 72 hours, CellTiter-Glo 2.0. The method, then:
as §8, §9, §10, §11, §3, §4, §5

The test system of a further assay is Farage cell line. Nature of the assay: Cellular growth inhibition assay, Farage cells (CellTiter-Glo). Conditions: Farage cell line (DLBCL), 72 hours, CellTiter-Glo 2.0. It counts as cell-based. The method, then: as §1, §2, §3, §4, §5

For `CCS(=O)(=O)Nc1ccc(Oc2cccc(OCCOCCOC3CCN(c4ncc(Cl)c(Nc5ccc6c(c5)cc(OCC(=O)NC)c(=O)n6C)n4)CC3)c2)c(-c2cn(C)c(=O)c3[nH]ccc23)c1` [Compound I-1, 2-[[6-[[5-chloro-2-[4-[2-[2-[3-[4-(ethylsulfonylamino)-2-(6-methyl-7-oxo-1H-pyrrolo[2,3-c]pyridin-4-yl)phenoxy]phenoxy]ethoxy]ethoxy]-1-piperidyl]pyrimidin-4-yl]amino]-1-methyl-2-oxo-3-quinolyl]oxy]-N-methyl-acetamide], in the assay on Su-DHL-4 cell line, the GI50 is less than 0.5 µM.

`CCS(=O)(=O)Nc1ccc(Oc2cccc(OCCN3CCN(CC4CCN(c5ncc(Cl)c(Nc6ccc7c(c6)cc(OCC(=O)NC)c(=O)n7C)n5)CC4)CC3)c2)c(-c2cn(C)c(=O)c3[nH]ccc23)c1` [Compound I-4]: the Kd in assay [1] was more than 0.1 µM. Moreover, the half-inhibitory concentration (IC50) in assay [2] lay in the range of 0.05 to 0.5 µM; in assay [3], 0.005 to 0.05 µM. In addition, the GI50 (in assay [4]; in assay [5]; in the assay with Su-DHL-4 cell line) was less than 0.5 µM each time.

Consider `CCS(=O)(=O)Nc1ccc(Oc2cccc(OCCN3CCN(CCN4CCN(c5ncc(Cl)c(Nc6ccc7c(c6)cc(OCC(=O)NC)c(=O)n7C)n5)CC4)CC3)c2)c(-c2cn(C)c(=O)c3[nH]ccc23)c1` [Compound I-15], for which the Kd in assay [1] lay within 0.001 to 0.01 µM. The IC50 in assay [2] and in assay [3] was less than 0.005 µM each time. Moreover, the GI50 in assay [4] was less than 0.5 µM; in assay [5] it was 0.5 to 1.5 µM; in the assay with Su-DHL-4 cell line, less than 0.5 µM; with Farage cell line, less than 0.5 µM.

`CNC(=O)COc1cc2cc(Nc3nc(N4CCN(CCN(C)C5CC(Oc6ccc(C(C)(C)O)cc6-c6cn(C)c(=O)c7[nH]ccc67)C5)CC4)ncc3Cl)ccc2n(C)c1=O` (stereo not shown) [Compound I-18, 2-[[6-[[5-chloro-2-[4-[2-[[3-[4-(1-hydroxy-1-methyl-ethyl)-2-(6-methyl-7-oxo-1H-pyrrolo[2,3-c]pyridin-4-yl)phenoxy]cyclobutyl]-methyl-amino]ethyl]piperazin-1-yl]pyrimidin-4-yl]amino]-1-methyl-2-oxo-3-quinolyl]oxy]-N-methyl-acetamide] showed a Kd in assay [1] of 0.001 to 0.01 µM. Besides, the figures for the half-inhibitory concentration (IC50) in assay [2] and in assay [3] were 0.005 to 0.05 µM and less than 0.005 µM, respectively. Besides, the GI50 in assay [4] is less than 0.5 µM; in assay [5], 0.5 to 1.5 µM; in the assay with Su-DHL-4 cell line, less than 0.5 µM; with Farage cell line, less than 0.5 µM.

In assay [1], `CNC(=O)COc1cc2cc(Nc3nc(N4CCC(CCCN5CCN(CCN(C)[C@H]6C[C@H](Oc7ccc(C(C)(C)O)cc7-c7cn(C)c(=O)c8[nH]ccc78)C6)CC5)CC4)ncc3Cl)ccc2n(C)c1=O` [Compound I-19] yielded a Kd of 0.001 to 0.01 µM. In addition, the figures for the IC50 in assay [2] and in assay [3] were 0.005 to 0.05 µM and less than 0.005 µM, respectively. The GI50 is less than 0.5 µM in assay [4], 1.5 to 3 µM in assay [5], less than 0.5 µM with Su-DHL-4 cell line and less than 0.5 µM in the assay with Farage cell line.

In assay [1], `CNC(=O)COc1cc2cc(Nc3nc(N4CCC(CN5CC(Oc6ccc(C7=N[C@@H](Cc8ncco8)c8nnc(C)n8-c8sc(C)c(C)c87)cc6)C5)CC4)ncc3Cl)ccc2n(C)c1=O` [Compound I-26] had a Kd of 0.01 to 0.1 µM. In addition, the IC50 in assay [2] and in assay [3] was less than 0.005 µM in each case. Besides, the GI50 (in assay [4]; in assay [5]; with Su-DHL-4 cell line) was less than 0.5 µM in each case.

`CNC(=O)COc1cc2cc(Nc3nc(N4CCC(N5CCN(Cc6ccc(Oc7ccc(C(C)(C)O)cc7-c7cn(C)c(=O)c8[nH]ccc78)cc6)CC5)CC4)ncc3Cl)ccc2n(C)c1=O` [Compound I-48] yielded a Kd in assay [1] of 0.01 to 0.1 µM. Moreover, the IC50 in assay [2] and in assay [3] was less than 0.005 µM throughout. In addition, the GI50 (in assay [4]; in assay [5]; with Farage cell line) was less than 0.5 µM in each case.
